Consider one substance from publication PMC8729770, “In Vitro Evaluation of Antimicrobial Peptides from the Black Soldier Fly (Hermetia Illucens) against a Selection of Human Pathogens” (Microbiology Spectrum, 2022).

One assay has as its system K. pneumoniae ATCC 13883. As to conditions: ATCC 13883, 16 h.
The test system of assay [1] is M. tuberculosis ATCC 25177 (H37Ra). Particulars: for IC50: read-out: IC50 M. tuberculosis ATCC 25177 (H37Ra), starting at 32 μM, 5×10^5 CFU/mL, 7 days, 37°C, resazurin; for MIC M. tuberculosis ATCC 25177 (H37Ra): visual. (The colour change of resazurin is a common sign of viable cells or microbes.)
The test system of assay [2] is P. aeruginosa ATCC 15692 (PAO1). As to conditions: ATCC 15692, 16 h.
The subject of another assay is E. coli ATCC 8739. Format: cell-based, Escherichia coli. Particulars: for MBC E. coli ATCC 8739: plated on MHA, ≥3 log reduction vs growth control. In a few lines:
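Peptides were serially diluted (64–0.25 μM, repeat 32–0.016 μM) against 5 × 10^3 CFU/mL inocula in MHB (bacteria) or RPMI (fungi) at 37°C for 16 h (bacteria), 24 h (C. albicans) or 48 h (A. fumigatus). MIC was read visually with resazurin readout; MBC was defined as ≥3 log reduction on MHA.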

Assay [3] concerns preformed P. aeruginosa ATCC 15442 biofilm. Briefly: Biofilm eradication (postexposure). Format: cell-based, Pseudomonas aeruginosa. Particulars: 128-0.5 μM, 16 h; resazurin. The method, then: After 16 h of incubation at 37°C and shaking at 110 rpm (New Brunswick Innova 4300), a resazurin assay was used as described by Gilbert-Girard et al. to determine the viability of the bacterial cells in the biofilm ([79]). After incubation, the growth medium was removed from the well plates and the bacterial biofilms were washed once with PBS to remove remaining planktonic cells. […] The fluorescence of the wells was measured at λexcitation = 550 nm and λemission = 590 using a microplate reader (Promega). Afterwards, a crystal violet staining was applied to determine the biomass of the biofilms ([79]). The resazurin solution was removed from the well plates and 200 μL of 100% ethanol (VWR Chemicals) was added to fix the biofilms. After 15 min of incubation, the ethanol was discarded from the wells and the plates were left to air dry for 30 min. […] The staining solution was removed after 5 min and the biofilms were washed with PBS. After air-drying for 10 min, the crystal violet stain was solubilized in 200 μL of 100% ethanol. […] The experiment was carried out three times. Polymyxin B sulfate (Sigma-Aldrich) was included as a reference. […] The next day, bacterial viability and biomass were determined with a resazurin assay and crystal violet assay as described earlier. […]

Assay [4] deals with P. aeruginosa ATCC 9027. Kind of assay: Inner membrane permeabilization, propidium iodide uptake assay. The assay is classed as cell-based, Pseudomonas aeruginosa. As to conditions: 32 μM versus polymyxin B 16 μM. The method, then: To investigate the IM damage induced by the selected AMPs, a PI (Sigma-Aldrich) uptake assay was performed, adapted from […] et al. ([80]). P. aeruginosa ATCC 9027 was grown until the mid-log phase in MHB. The bacteria were centrifuged (3,000 × g, 15 min) and resuspended in 5 mM HEPES (Sigma-Aldrich) buffer (pH 7.4) to an OD600 of 0.5. […] Fluorescence was measured every 5 min during 1 h using a microplate reader (Promega) at λexcitation = 530 nm and λemission = 620. Data were normalized based on the fluorescent signal in the presence of 50 μL HEPES buffer and 150 μL PI bacterial suspension. The assay was carried out in triplicate.

Assay [5] deals with P. aeruginosa ATCC 9027. As to conditions: ATCC 9027, 16 h.

Like-named read-outs stand apart in the source and are kept apart here. Ends that are not written are not given here.

The IC50 is the concentration that inhibits the measured activity by half. “RWYKKIFKPVEKAVQRVRDGTLQALGVAQQAANVYATAQGAQQQRHA-NH2 [Hill-Cec10]”: the “MIC K. pneumoniae” value in the assay on K. pneumoniae ATCC 13883 is 0.5 to 1 µM. For the same substance, the results for the IC50 (in assay [1] (repeat 1); in assay [1] (repeat 2); in the assay with P. aeruginosa ATCC 9027 [5]) were > 32 µM, > 32 µM and 0.75 µM, respectively. For the same substance, the “MIC M. tuberculosis ATCC 25177 (H37Ra)” value in assay [1] (repeat 1) and in assay [1] (repeat 2) was >32 µM in each case. Further, in assay [2], the “MBC P. aeruginosa ATCC 15692 (PAO1)” value was 16 µM. Besides, the “MIC E. coli ATCC 8739” value against E. coli ATCC 8739 (ATCC 8739, 16 h) stood at 0.50 µM; in the assay with E. coli ATCC 8739 (repeat 1, 64-0.25 μM, determined visually, 16 h) it was 0.25 µM. Besides, the figures for the “MBC E. coli ATCC 8739” value with E. coli ATCC 8739 (repeat 1) and with E. coli ATCC 8739 (repeat 2) were 0.25 µM and 32.00 µM, respectively. Also, the “effect on viability of preformed biofilm compared with the untreated control” value in assay [3] is “No significant effect”. Moreover, in the assay with P. aeruginosa ATCC 9027 [4], the “PI uptake (inner membrane permeabilization)” value is “exceeds that of a high dose of polymyxin B”.
